We go through 16 compounds from ChEMBL document CHEMBL5380835, “Discovery of Clinically Used Octenidine as NRAS Repressor That Effectively Inhibits NRAS-Mutant Melanoma” (J Med Chem, 2023).

The source made the active and inactive calls. No cut-off for these calls is given here.

In assay [1] the test system is SK-MEL-2. Put plainly: Effect on NRAS protein translation in human SK-MEL-2 cells at 1/2 times IC50 incubated for 24 hrs by Western blot analysis. The class given is functional, cell-based. (Immunoblotting shows a protein as a band on a membrane.)
The subject of assay [2] is SK-MEL-2. Put plainly: Cytotoxicity against human SK-MEL-2 cells expressing NRAS mutant assessed as cell growth inhibition incubated for 48 hrs by MTT assay. The class given is functional, cell-based. Conditions: SK-MEL-2, 48 h. For orientation: Tetrazolium dyes change colour on reduction, which living cells bring about.
The test system of assay [3] is SK-MEL-2. Put plainly: Upregulation of NRAS mRNA level in human SK-MEL-2 cells at 1/2 times IC50 incubated for 24 hrs by RT-qPCR analysis. It is filed as functional, cell-based. In general terms: Quantitative PCR measures a nucleic acid by following its amplification.
Assay [4] deals with SK-MEL-2. Put plainly: Cytotoxicity against human SK-MEL-2 cells assessed as cell growth inhibition incubated for 24 hrs by MTT assay. The class given is functional, cell-based. The conditions noted are these: SK-MEL-2, 24 h.
Assay [5] can be described thus: Binding affinity to 5'-FAM-labeled to NRAS RNA G-quadruplex 5'-r(UGUGGGAGGGGCGGGUCUGGG)-3' (unknown origin) assessed as dissociation constant by fluorescence quenching assay.
Assay [6] relates to SK-MEL-2. Put plainly: Synergistic cytotoxicity against human SK-MEL-2 cells expressing NRAS mutant assessed as combination index measured for 48 hrs in presence of Rapamycin by MTT assay. It is filed as functional.
Assay [7] deals with SK-MEL-2. Put plainly: Antiproliferative activity against human SK-MEL-2 cells assessed as inhibition of colony formation at 1.5 uM measured after 10 days by crystal violet staining based assay. It is filed as functional, cell-based. The conditions noted are these: time 10.0 day.
Assay [8] concerns SK-MEL-2. Put plainly: Synergistic cytotoxicity against human SK-MEL-2 cells expressing NRAS mutant assessed as combination index measured for 48 hrs in presence of MK2206 by MTT assay. It is filed as functional.
Assay [9] relates to SK-MEL-2. Put plainly: Synergistic cytotoxicity against human SK-MEL-2 cells expressing NRAS mutant assessed as combination index measured for 48 hrs in presence of MEK-162 by MTT assay. The class given is functional.
Assay [10] concerns SK-MEL-2. Put plainly: Synergistic cytotoxicity against human SK-MEL-2 cells expressing NRAS mutant assessed as combination index measured for 48 hrs in presence of LY3214996 by MTT assay. It is filed as functional.

The term IC50 denotes the concentration that gives 50% inhibition. In general, Kd refers to the free concentration of one partner at which half of the binding sites on the other are occupied at equilibrium, for simple one-to-one binding.

As to `CN(C)c1ccc(C(=C2C=CC(=[N+](C)C)C=C2)c2ccc(N(C)C)cc2)cc1` [GENTIAN VIOLET], the result with SK-MEL-2 [1] was inactive. The IC50 is 1360 nM with SK-MEL-2 [2] and 2890 nM in the assay with SK-MEL-2 [4]. Also, the result with SK-MEL-2 [3] was Active.
With `CCCNc1cc[n+](CCCCCC[n+]2ccc(NCCC)cc2)cc1`, in [5], the Kd is 2990 nM.
As to `Cn1nccc1Nc1nccc(-c2cc3c(s2)C(C)(C)N(CCN2CCOCC2)C3=O)n1` [TEMUTERKIB], the CI in the assay on SK-MEL-2 [6] and in the assay with SK-MEL-2 [8] was 0.5 each time. In the assay with SK-MEL-2 [7], the inhibition entry was “Active”.
Take `CCCCCCNc1cc[n+](CCCCCCCCCC[n+]2ccc(NCCCCCC)cc2)cc1`: the IC50 in the assay on SK-MEL-2 [2] stood at 910 nM. Further, the Kd in [5] was found to be 290 nM.
The matching figures for `CCCCCCNc1cc[n+](CCCC[n+]2ccc(NCCCCCC)cc2)cc1`: 17300 nM and 760 nM.
For the compound `CCCNc1cc[n+](CCCC[n+]2ccc(NCCC)cc2)cc1`, the Kd in assay [5] worked out at 210 nM.
`CCCCCNc1cc[n+](CCCC[n+]2ccc(NCCCCC)cc2)cc1`: the IC50 with SK-MEL-2 [2] was greater than 25000 nM. Further, in [5], the Kd stood at 1660 nM.
As for `CCCCCNc1cc[n+](CCCCCCCCCC[n+]2ccc(NCCCCC)cc2)cc1`, in the assay on SK-MEL-2 [2], the IC50 is 3000 nM. Also, in assay [5], the Kd turned out to be 1850 nM.
For `CCCCCCCCNc1cc[n+](CCCC[n+]2ccc(NCCCCCCCC)cc2)cc1`, in that order: 5610 nM and 1340 nM.
On to `CCCCCNc1cc[n+](CCCCCC[n+]2ccc(NCCCCC)cc2)cc1`, for which the 50% inhibitory concentration (IC50) in the assay with SK-MEL-2 [2] is greater than 25000 nM. Also, the Kd in [5] was found to be 1290 nM.
`CO[C@H]1C[C@@H]2CC[C@@H](C)[C@@](O)(O2)C(=O)C(=O)N2CCCC[C@H]2C(=O)O[C@H]([C@H](C)C[C@@H]2CC[C@@H](O)[C@H](OC)C2)CC(=O)[C@H](C)/C=C(\C)[C@@H](O)[C@@H](OC)C(=O)[C@H](C)C[C@H](C)/C=C/C=C/C=C/1C` [SIROLIMUS]: the CI with SK-MEL-2 [9] and in the assay with SK-MEL-2 [10] was 0.5 throughout. The inhibition result in the assay with SK-MEL-2 [7] was “Active”.
For the compound `CCCCCCCCN=c1ccn(CCCCCCn2ccc(=NCCCCCCCC)cc2)cc1`, in the assay on SK-MEL-2 [2], the IC50 amounted to 1770 nM. Further, in [5], the Kd was determined as 320 nM.
The matching figures for `CCCCCCNc1cc[n+](CCCCCC[n+]2ccc(NCCCCCC)cc2)cc1`: 8610 nM and 740 nM.
As for `NC1(c2ccc(-c3nc4ccn5c(=O)[nH]nc5c4cc3-c3ccccc3)cc2)CCC1` [MK-2206], the CI with SK-MEL-2 [9] and with SK-MEL-2 [10] was 0.5 throughout.
As to `CCCNc1cc[n+](CCCCCCCCCC[n+]2ccc(NCCC)cc2)cc1`, in the assay with SK-MEL-2 [2], the IC50 was 8360 nM. Also, the Kd in assay [5] was determined as 1720 nM.
Regarding `Nc1ccc2cc3ccc(N)cc3nc2c1` [PROFLAVINE], the outcome in the assay with SK-MEL-2 [1] was inactive. Further, the IC50 stood at 1600 nM in the assay on SK-MEL-2 [2] and 5310 nM in the assay with SK-MEL-2 [4]. Besides, the result with SK-MEL-2 [3] was Active.
